In publication PMC12543283, “TastepepAI: An artificial intelligence platform for taste peptide de novo design” (PLOS Computational Biology, 2025):
Ends that are not written are not given here.

Key:
[1] = system: human embryonic kidney cells (HEK293T)
[2] = system: human bronchial epithelial cells (BEAS-2B)
Protocol: The cytotoxicity of 73 synthetic peptides was evaluated using four human cell lines: human pancreatic ductal epithelial cells (HPNE), human embryonic kidney cells (HEK293T), human umbilical vein endothelial cells (HUVEC), and human bronchial epithelial cells (BEAS-2B). When cell density reached 70% confluence, the complete culture medium was replaced with serum-free maintenance medium, and peptides were added at a final concentration of 100 μM for 36 h. Control groups received only serum-free maintenance medium without peptides. Cell proliferation was assessed using the CCK-8 assay kit (Solarbio, CA1210) according to the manufacturer’s instructions.

[3] = Electronic tongue analysis (Taste-Sensing System SA 402B); set-up: unit not given here; conditions: reference solution 30 mM KCl + 0.3 mM tartaric acid as baseline, first measurement excluded; for Umami: sensor AAE; for Umami / Bitter / Sweet: detection threshold 0, room temperature; for Umami / Bitter / Sour / Salty: four replicates; for Sour: detection threshold -13, room temperature; for Salty: detection threshold -6, room temperature; for Sweet: measured five times
Procedure, shortened: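 Room-temperature electronic-tongue readings with five taste probes, calibrated against a reference of 30 mM KCl and 0.3 mM tartaric acid. Samples at 0.1 mg/mL and 1.0 mg/mL were measured four times, sweetness five times, and the first run was dropped. Detection cut-offs were sour −13, salty −6, others 0.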

[4] = system: human pancreatic ductal epithelial cells (HPNE)
[5] = system: human umbilical vein endothelial cells (HUVEC)

| Substance | Average cell viability, HEK293T [1] | Cell viability, HEK293T, Data1 [1] | Cell viability, HEK293T, Data2 [1] | Cell viability, HEK293T, Data3 [1] | Average cell viability, BEAS-2B [2] | Cell viability, BEAS-2B, Data1 [2] | Cell viability, BEAS-2B, Data2 [2] | Cell viability, BEAS-2B, Data3 [2] | Umami ([3]; peptide 0.1 mg/mL) | Umami ([3]; peptide 1 mg/mL) | Bitter ([3]; sensor C00, peptide 0.1 mg/mL) | Bitter ([3]; sensor C00, peptide 1 mg/mL) | Sour ([3]; sensor CA0, peptide 0.1 mg/mL) | Sour ([3]; sensor CA0, peptide 1 mg/mL) | Salty ([3]; sensor CT0, peptide 0.1 mg/mL) | Salty ([3]; sensor CT0, peptide 1 mg/mL) | Sweet ([3]; sensor GL1, peptide 0.1 mg/mL) | Sweet ([3]; sensor GL1, peptide 1 mg/mL) | Average cell viability, HPNE [4] | Cell viability, HPNE, Data1 [4] | also measured |
| --- | --- | --- | --- | --- | --- | --- | --- | --- | --- | --- | --- | --- | --- | --- | --- | --- | --- | --- | --- | --- | --- |
| PPLENT [TaPep39] | 100.06 | 96.81 | 97.19 | 106.18 | 115.22 | 118.05 | 113.86 | 113.76 | 0.99 | -5.89 | 7.69 | 2.99 | -1.65 | 15.66 | -18.68 | 12.96 | 6.53 | -7.82 | 99.87 | 95.44 | Cell viability, HPNE, Data2 [4]: 90.95; Cell viability, HPNE, Data3 [4]: 113.21; Average cell viability, HUVEC [5]: 107.56; Cell viability, HUVEC, Data1 [5]: 101.22; Cell viability, HUVEC, Data2 [5]: 113.36; Cell viability, HUVEC, Data3 [5]: 108.09 |
| PTELESD [TaPep41] | 106.18 | 94.54 | 110.54 | 113.47 | 110.80 | 117.85 | 114.36 | 100.20 | 1.88 | -3.94 | 7.34 | 3.91 | -3.84 | 9.16 | -20.79 | 2.54 | 8.41 | -8.94 | 95.94 | 86.16 | Cell viability, HPNE, Data2 [4]: 113.91; Cell viability, HPNE, Data3 [4]: 87.75; Average cell viability, HUVEC [5]: 103.09; Cell viability, HUVEC, Data1 [5]: 108.17; Cell viability, HUVEC, Data2 [5]: 102.98; Cell viability, HUVEC, Data3 [5]: 98.11 |
| SAANT [TaPep31] | 99.34 | 102.02 | 100.41 | 95.58 | 110.70 | 118.64 | 100.10 | 113.36 | 1.69 | -4.82 | 7.84 | 2.76 | -3.49 | 12.70 | -19.57 | 12.57 | 8.41 | -5.90 | 100.40 | 105.82 | Cell viability, HPNE, Data2 [4]: 112.81; Cell viability, HPNE, Data3 [4]: 82.56; Average cell viability, HUVEC [5]: 99.39; Cell viability, HUVEC, Data1 [5]: 91.56; Cell viability, HUVEC, Data2 [5]: 100.67; Cell viability, HUVEC, Data3 [5]: 105.93 |
| SEGIQ [TaPep70] | 99.37 | 100.88 | 96.25 | 100.98 | 104.32 | 109.87 | 102.79 | 100.30 | 1.63 | -4.00 | 7.38 | 3.77 | -3.33 | 10.04 | -20.29 | 7.83 | 6.55 | -3.62 | 105.19 | 112.61 | Cell viability, HPNE, Data2 [4]: 102.83; Cell viability, HPNE, Data3 [4]: 100.13; Average cell viability, HUVEC [5]: 107.56; Cell viability, HUVEC, Data1 [5]: 113.68; Cell viability, HUVEC, Data2 [5]: 110.32; Cell viability, HUVEC, Data3 [5]: 98.67 |
